This assay has as its system 126254-015-R-J1-PDC complex spheroid growth, % test/control. Description: Anticancer human tumor 126254-015-R-J1-PDC patient-derived soft tissue sarcoma cell line growth inhibition [Asc]. Particulars: for viability, T/C: stronger effect = lower value. The gist of the method: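 Tumor cells were grown as multicellular spheroids with stromal HUVEC and mesenchymal stem cells and treated singly or in combination. Concentrations fell in half-log steps from the clinical Cmax, or from 10 microM where none was known.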

Setting [1] is: curve of first compound, second compound 0.1 µM.
The mark [2] stands for this setting: curve of first compound, second compound 0.316 µM.
The mark [3] stands for this setting: curve of first compound, second compound 1 µM.
[4] abbreviates: curve of first compound, second compound 0.01 µM.
The mark [5] stands for this setting: curve of first compound, second compound 0.0316 µM.
Where [6] appears, read: second compound 0.01 µM, first compound 0.00316 µM.
Where [7] appears, read: second compound 0.01 µM, first compound 0.01 µM.
Setting [8] is: second compound 0.01 µM, first compound 0.0316 µM.
Setting [9] is: second compound 0.01 µM, first compound 0.1 µM.
Where [10] appears, read: second compound 0.0316 µM, first compound 0.00316 µM.
Setting [11] is: second compound 0.0316 µM, first compound 0.01 µM.
Setting [12] is: second compound 0.0316 µM, first compound 0.0316 µM.
The mark [13] stands for this setting: second compound 0.0316 µM, first compound 0.1 µM.
The mark [14] stands for this setting: second compound 0.1 µM, first compound 0.00316 µM.
[15] abbreviates: second compound 0.1 µM, first compound 0.01 µM.
[16] abbreviates: second compound 0.1 µM, first compound 0.0316 µM.
[17] abbreviates: second compound 0.1 µM, first compound 0.1 µM.
Where [18] appears, read: second compound 0.316 µM, first compound 0.00316 µM.
Setting [19] is: second compound 0.316 µM, first compound 0.01 µM.
[20] abbreviates: second compound 0.316 µM, first compound 0.0316 µM.
Where [21] appears, read: second compound 0.316 µM, first compound 0.1 µM.
Setting [22] is: second compound 1 µM, first compound 0.00316 µM.
[23] abbreviates: second compound 1 µM, first compound 0.01 µM.
Where [24] appears, read: second compound 1 µM, first compound 0.0316 µM.
Where [25] appears, read: second compound 1 µM, first compound 0.1 µM.

Structures are written as SMILES. Values joined by “and” are separate entries in the source; they are usually repeats but may differ in a detail not shown here. Equal entries are not always repeated. A value given as a limit tells only on which side of the number the result lay.
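Note: spheroids exposed to compound for seven days.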
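Throughout, for viability, T/C: 100% = DMSO vehicle control wells.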

The IC50 is the concentration that gives 50% inhibition. The term viability, T/C denotes the ratio of treated to control. Take `NC(=O)C(=Cn1cnc(-c2cc(C(F)(F)F)cc(C(F)(F)F)c2)n1)c1cncnc1` + Cc1c(S(C)(=O)=O)c(-c2cc(F)cc(N3CCN(c4ccc(NS(=O)(=O)c5ccc(NC(CCN6CCC(C(=O)OCCCP(=O)(O)O)CC6)CSc6ccccc6)c(S(=O)(=O)C(F)(F)F)c5)cc4)CC3)c2)c(-c2ccc(Cl)cc2)n1C(C)C: the IC50 was 30.5 nM under setting [1]; 37.3 nM under setting [2]; 31.5 nM under setting [3]; 29.6 nM (curve of first compound, second compound 3.16 µM); 26.1 nM (curve of first compound, second compound 10 µM). The viability, T/C is 98.5% (second compound 0.1 µM, first compound 0.000949 µM); 93.8% (second compound 0.1 µM, first compound 0.003 µM); 74.5% (second compound 0.1 µM, first compound 0.00949 µM); 53.2% (second compound 0.1 µM, first compound 0.03 µM); 22% (second compound 0.1 µM, first compound 0.0949 µM); 11% (second compound 0.1 µM, first compound 0.3 µM). The viability, T/C is, setting by setting: (second compound 0.316 µM, first compound 0.000949 µM) 78.1%; (second compound 0.316 µM, first compound 0.003 µM) 82.4%; (second compound 0.316 µM, first compound 0.00949 µM) 70%; (second compound 0.316 µM, first compound 0.03 µM) 58%; (second compound 0.316 µM, first compound 0.0949 µM) 23%; (second compound 0.316 µM, first compound 0.3 µM) 8.76%. Also, the viability, T/C was 83.4% (second compound 1 µM, first compound 0.000949 µM); 74% (second compound 1 µM, first compound 0.003 µM); 76.6% (second compound 1 µM, first compound 0.00949 µM); 49.5% (second compound 1 µM, first compound 0.03 µM); 23% (second compound 1 µM, first compound 0.0949 µM); 7.77% (second compound 1 µM, first compound 0.3 µM). Moreover, the viability, T/C runs as follows: (second compound 3.16 µM, first compound 0.000949 µM) 94.8%; (second compound 3.16 µM, first compound 0.003 µM) 82.7%; (second compound 3.16 µM, first compound 0.00949 µM) 77.5%; (second compound 3.16 µM, first compound 0.03 µM) 50.6%; (second compound 3.16 µM, first compound 0.0949 µM) 19.3%; (second compound 3.16 µM, first compound 0.3 µM) 7.61%. The viability, T/C (second compound 10 µM, first compound 0.000949 µM) was 85.6%; the viability, T/C (second compound 10 µM, first compound 0.003 µM) was 77.2%; the viability, T/C (second compound 10 µM, first compound 0.00949 µM) was 68.4%; the viability, T/C (second compound 10 µM, first compound 0.03 µM) is 49.9%; the viability, T/C (second compound 10 µM, first compound 0.0949 µM) was 19.3%; the viability, T/C (second compound 10 µM, first compound 0.3 µM) was 7.73%.
Regarding `NC1CCC(NC2CC2c2ccccc2)CC1` (centres undefined) + CNC(C)C(=O)NC1CN(S(=O)(=O)c2cccc(S(=O)(=O)N3CCC4CCC(C(=O)NC(c5ccccc5)c5ccccc5)N4C(=O)C(NC(=O)C(C)NC)C3)c2)CCC2CCC(C(=O)NC(c3ccccc3)c3ccccc3)N2C1=O, the 50% inhibitory concentration (IC50) is > 100 nM under setting [4]; > 100 nM under setting [5]; > 100 nM under setting [1]; > 100 nM under setting [2]; > 100 nM under setting [3]. Further, the viability, T/C is 86.3% (second compound 0.01 µM, first compound 0.000316 µM); 89.1% (second compound 0.01 µM, first compound 0.001 µM); 87.1% under setting [6]; 75.5% under setting [7]; 80.5% under setting [8]; 75% under setting [9]. The viability, T/C reads like this: (second compound 0.0316 µM, first compound 0.000316 µM) 79.2%; (second compound 0.0316 µM, first compound 0.001 µM) 81.6%; under setting [10], 77.5%; under setting [11], 77.3%; under setting [12], 78.1%; under setting [13], 70.6%. The viability, T/C by setting is: (second compound 0.1 µM, first compound 0.000316 µM) 70.3%; (second compound 0.1 µM, first compound 0.001 µM) 71.3%; under setting [14], 72.2%; under setting [15], 69.6%; under setting [16], 68.8%; under setting [17], 68%. Further, the viability, T/C runs as follows: (second compound 0.316 µM, first compound 0.000316 µM) 62.2%; (second compound 0.316 µM, first compound 0.001 µM) 71.6%; under setting [18], 65%; under setting [19], 54.5%; under setting [20], 61.7%; under setting [21], 57.8%. The viability, T/C was 49.5% (second compound 1 µM, first compound 0.000316 µM); 56.5% (second compound 1 µM, first compound 0.001 µM); 54.5% under setting [22]; 50.9% under setting [23]; 53.8% under setting [24]; 53% under setting [25].
On to `CCN1CCN(Cc2ccc(Nc3ncc(F)c(-c4cc(F)c5nc(C)n(C(C)C)c5c4)n3)nc2)CC1` + CNC(C)C(=O)NC1CN(S(=O)(=O)c2cccc(S(=O)(=O)N3CCC4CCC(C(=O)NC(c5ccccc5)c5ccccc5)N4C(=O)C(NC(=O)C(C)NC)C3)c2)CCC2CCC(C(=O)NC(c3ccccc3)c3ccccc3)N2C1=O, for which the IC50 runs as follows: under setting [4], > 1000 nM; under setting [5], > 1000 nM; under setting [1], > 1000 nM; under setting [2], > 1000 nM; under setting [3], > 1000 nM. Besides, the viability, T/C is, setting by setting: under setting [6], 94.4%; under setting [7], 96.4%; under setting [8], 91.5%; under setting [9], 82.5%; (second compound 0.01 µM, first compound 0.316 µM) 97%; (second compound 0.01 µM, first compound 1 µM) 91.6%. The viability, T/C under setting [10] is 71%; the viability, T/C under setting [11] was 74.4%; the viability, T/C under setting [12] was 77.8%; the viability, T/C under setting [13] is 80.1%; the viability, T/C (second compound 0.0316 µM, first compound 0.316 µM) is 81.7%; the viability, T/C (second compound 0.0316 µM, first compound 1 µM) was 77.6%. In addition, the viability, T/C runs as follows: under setting [14], 61.4%; under setting [15], 68.7%; under setting [16], 62.9%; under setting [17], 69%; (second compound 0.1 µM, first compound 0.316 µM) 75.9%; (second compound 0.1 µM, first compound 1 µM) 79.6%. The viability, T/C by setting is: under setting [18], 57.8%; under setting [19], 62.5%; under setting [20], 62.4%; under setting [21], 67.4%; (second compound 0.316 µM, first compound 0.316 µM) 65.6%; (second compound 0.316 µM, first compound 1 µM) 71.8%. In addition, the viability, T/C reads like this: under setting [22], 59.2%; under setting [23], 61.5%; under setting [24], 65%; under setting [25], 52.6%; (second compound 1 µM, first compound 0.316 µM) 57.2%; (second compound 1 µM, first compound 1 µM) 60.9%.
Consider `O=C(c1ccc(F)c(F)c1Nc1ccc(I)cc1F)N1CC(O)([C@@H]2CCCCN2)C1`, for which the viability, T/C (compound 0.00316 µM) was 103% and 94.5% and 96.1%; the viability, T/C (compound 0.01 µM) was 109% (2×) and 105%; the viability, T/C (compound 0.0316 µM) is 102% (2×) and 93.1%; the viability, T/C (compound 0.1 µM) is 91.6% and 90.3% and 101%; the viability, T/C (compound 0.316 µM) is 66.5% and 70.8% and 78.6%; the viability, T/C (compound 1 µM) is 42.6% and 42.9% and 55.1%. For the same compound, the IC50 (curve of compound) is 699 nM and 755 nM and > 1000 nM.
For the compound `Cc1nc(N2CCC3(CC2)COC(C)C3N)c(CO)nc1Sc1ccnc(N)c1Cl` (centres undefined), the viability, T/C is 94.9% and 93.9% and 98.2% (compound 0.00949 µM); 103% and 83.5% and 93.7% (compound 0.03 µM); 86.2% and 84% and 84.9% (compound 0.0949 µM); 84.7% and 73.4% and 69.1% (compound 0.3 µM); 76.9% and 51.7% and 54.3% (compound 0.949 µM); 50.1% and 41.1% and 43.9% (compound 3 µM). In addition, where the note is “curve of compound”, the IC50 is > 3000 nM and 1260 nM and 1510 nM.

(Values after PubChem BioAssay AID1963429 (Molecular Pharmacology Branch, DTP, NCI, 2024).)
